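All cell lines were grown in 96-well plates and treated with compound for 48 hours. TGI marks complete inhibition of growth.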
How the values were obtained:
Assay in all cases: NCI tumour cell line growth inhibition, 48 h
HT29 colon = test system: HT29 colon
786-0 renal = test system: 786-0 renal
UO-31 renal = test system: UO-31 renal
SK-MEL-2 melanoma = test system: SK-MEL-2 melanoma
A549 NSCLC = test system: A549 NSCLC
SNB-75 CNS = test system: SNB-75 CNS
SK-OV-3 ovarian = test system: SK-OV-3 ovarian
OVCAR-4 ovarian = test system: OVCAR-4 ovarian
CCRF-CEM leukemia = test system: CCRF-CEM leukemia
SK-MEL-5 melanoma = test system: SK-MEL-5 melanoma
U251 CNS = test system: U251 CNS
EKVX NSCLC = test system: EKVX NSCLC
NCI-H23 lung = test system: NCI-H23 lung
MALME-3M melanoma = test system: MALME-3M melanoma
NCI/ADR-RES ovarian = test system: NCI/ADR-RES ovarian
SF-295 CNS = test system: SF-295 CNS
HL-60(TB) leukemia = test system: HL-60(TB) leukemia

Nc1ccc(CCSSCCc2ccc(N)cc2)cc1
TGI (HT29 colon): 49.7 µM
TGI (786-0 renal): 36.6 µM
TGI (UO-31 renal): > 82.8 µM
TGI (SK-MEL-2 melanoma): 43.4 µM
TGI (A549 NSCLC): > 100 µM
TGI (SNB-75 CNS): > 94.5 µM
TGI (SK-OV-3 ovarian): > 100 µM
TGI (OVCAR-4 ovarian): > 100 µM
TGI (CCRF-CEM leukemia): > 100 µM
TGI (SK-MEL-5 melanoma): > 52.7 µM
TGI (U251 CNS): 41.6 µM
TGI (EKVX NSCLC): > 100 µM
TGI (NCI-H23 lung): > 72.6 µM
TGI (MALME-3M melanoma): 41.6 µM
TGI (NCI/ADR-RES ovarian): > 74.4 µM
TGI (SF-295 CNS): > 100 µM

COc1ccc(N2C(=O)C3c4[nH]c5ccccc5c4C4CC(C)CC(C)C4C3C2=O)cc1 (centres undefined)
TGI (HT29 colon): > 100 µM
TGI (786-0 renal): > 100 µM
TGI (UO-31 renal): > 100 µM
TGI (A549 NSCLC): > 100 µM
TGI (SNB-75 CNS): > 100 µM
TGI (SK-OV-3 ovarian): > 100 µM
TGI (OVCAR-4 ovarian): > 100 µM
TGI (CCRF-CEM leukemia): > 100 µM
TGI (SK-MEL-5 melanoma): > 100 µM
TGI (U251 CNS): > 100 µM
TGI (HL-60(TB) leukemia): > 100 µM
TGI (EKVX NSCLC): > 100 µM
TGI (NCI-H23 lung): > 100 µM
TGI (MALME-3M melanoma): > 100 µM
TGI (SF-295 CNS): > 100 µM

COc1cccc(-c2nc3ccccc3c(=O)[nH]2)c1OC
TGI (HT29 colon): > 100 µM
TGI (786-0 renal): > 100 µM
TGI (UO-31 renal): > 100 µM
TGI (SK-MEL-2 melanoma): > 100 µM
TGI (A549 NSCLC): > 100 µM
TGI (SNB-75 CNS): > 100 µM
TGI (SK-OV-3 ovarian): > 100 µM
TGI (OVCAR-4 ovarian): > 100 µM
TGI (CCRF-CEM leukemia): > 100 µM
TGI (SK-MEL-5 melanoma): > 100 µM
TGI (U251 CNS): > 100 µM
TGI (EKVX NSCLC): > 100 µM
TGI (NCI-H23 lung): > 100 µM
TGI (MALME-3M melanoma): > 100 µM
TGI (NCI/ADR-RES ovarian): > 100 µM
TGI (SF-295 CNS): > 100 µM

CSc1sc(=S)sc1C(=O)N(C)c1ccccc1
TGI (HT29 colon): > 100 µM
TGI (786-0 renal): > 100 µM
TGI (UO-31 renal): > 100 µM
TGI (SK-MEL-2 melanoma): > 100 µM
TGI (A549 NSCLC): > 100 µM
TGI (SNB-75 CNS): 82.5 µM
TGI (OVCAR-4 ovarian): > 100 µM
TGI (CCRF-CEM leukemia): > 100 µM
TGI (SK-MEL-5 melanoma): > 100 µM
TGI (U251 CNS): > 100 µM
TGI (HL-60(TB) leukemia): > 100 µM
TGI (EKVX NSCLC): > 100 µM
TGI (NCI-H23 lung): > 100 µM
TGI (MALME-3M melanoma): > 100 µM
TGI (SF-295 CNS): > 100 µM

NC(CCC(=O)NC(CSC(=O)N(O)c1ccccc1)C(=O)NCC(=O)O)C(=O)O (centres undefined)
TGI (HT29 colon): > 1000 µM
TGI (786-0 renal): > 1000 µM
TGI (UO-31 renal): > 1000 µM
TGI (SK-MEL-2 melanoma): > 1000 µM
TGI (A549 NSCLC): > 1000 µM
TGI (SNB-75 CNS): > 1000 µM
TGI (SK-OV-3 ovarian): > 1000 µM
TGI (OVCAR-4 ovarian): > 1000 µM
TGI (CCRF-CEM leukemia): > 1000 µM
TGI (SK-MEL-5 melanoma): > 1000 µM
TGI (U251 CNS): > 1000 µM
TGI (HL-60(TB) leukemia): > 1000 µM
TGI (EKVX NSCLC): > 1000 µM
TGI (NCI-H23 lung): > 1000 µM
TGI (MALME-3M melanoma): > 1000 µM
TGI (SF-295 CNS): > 1000 µM

O=C(O)CCc1cccc2c1oc1c(CCC(=O)O)cccc12
TGI (HT29 colon): > 100 µM
TGI (786-0 renal): > 100 µM
TGI (UO-31 renal): > 100 µM
TGI (SK-MEL-2 melanoma): > 100 µM
TGI (A549 NSCLC): > 100 µM
TGI (SNB-75 CNS): > 100 µM
TGI (SK-OV-3 ovarian): > 100 µM
TGI (OVCAR-4 ovarian): > 100 µM
TGI (CCRF-CEM leukemia): > 100 µM
TGI (SK-MEL-5 melanoma): > 100 µM
TGI (U251 CNS): > 100 µM
TGI (HL-60(TB) leukemia): > 100 µM
TGI (NCI-H23 lung): > 100 µM
TGI (MALME-3M melanoma): > 100 µM
TGI (SF-295 CNS): > 100 µM

NC(=O)C1Cc2cc3c(cc21)OCO3 (centres undefined)
TGI (HT29 colon): > 100 µM
TGI (786-0 renal): > 100 µM
TGI (UO-31 renal): > 100 µM
TGI (A549 NSCLC): > 100 µM
TGI (SNB-75 CNS): > 100 µM
TGI (SK-OV-3 ovarian): > 100 µM
TGI (SK-MEL-5 melanoma): > 100 µM
TGI (EKVX NSCLC): > 100 µM
TGI (NCI-H23 lung): > 100 µM
TGI (MALME-3M melanoma): > 100 µM
TGI (NCI/ADR-RES ovarian): > 100 µM
TGI (SF-295 CNS): > 100 µM

CC1OC(OC2C(OC(=O)[C@@H]3CC(C)(C)C[C@@H]4C5=CC[C@@H]6[C@@]7(C)C[C@H](O)[C@H](OC8OC(CO)C(O)C(O)C8O)[C@@](C)(CO)C7[C@H](O)C[C@@]6(C)[C@]5(C)C[C@@H](O)[C@H]43)OCC(O)C2O)C(O)C(O)C1O (some centres undefined)
TGI (HT29 colon): > 15 µM
TGI (786-0 renal): > 15 µM
TGI (UO-31 renal): > 15 µM
TGI (SK-MEL-2 melanoma): > 15 µM
TGI (SNB-75 CNS): > 15 µM
TGI (SK-OV-3 ovarian): > 15 µM
TGI (OVCAR-4 ovarian): > 15 µM
TGI (CCRF-CEM leukemia): > 15 µM
TGI (SK-MEL-5 melanoma): > 15 µM
TGI (U251 CNS): > 15 µM
TGI (HL-60(TB) leukemia): > 15 µM
TGI (EKVX NSCLC): > 15 µM
TGI (NCI-H23 lung): > 15 µM
TGI (NCI/ADR-RES ovarian): > 15 µM
TGI (SF-295 CNS): > 15 µM

COc1ccc(/C=C2\N=C(SC)N(CN3CCCCC3)C2=O)cc1
TGI (HT29 colon): > 100 µM
TGI (786-0 renal): > 100 µM
TGI (UO-31 renal): > 100 µM
TGI (SK-MEL-2 melanoma): > 100 µM
TGI (A549 NSCLC): > 100 µM
TGI (SNB-75 CNS): > 100 µM
TGI (SK-OV-3 ovarian): > 100 µM
TGI (OVCAR-4 ovarian): > 100 µM
TGI (SK-MEL-5 melanoma): > 100 µM
TGI (U251 CNS): > 100 µM
TGI (EKVX NSCLC): > 100 µM
TGI (NCI-H23 lung): > 100 µM
TGI (MALME-3M melanoma): > 100 µM
TGI (NCI/ADR-RES ovarian): > 100 µM
TGI (SF-295 CNS): > 100 µM

N#CCCN(c1ccc(C=Nc2ccccc2Cl)cc1)S(=O)(=O)c1ccccc1
TGI (HT29 colon): > 100 µM
TGI (786-0 renal): > 100 µM
TGI (UO-31 renal): > 100 µM
TGI (SK-MEL-2 melanoma): > 100 µM
TGI (A549 NSCLC): > 100 µM
TGI (SNB-75 CNS): > 100 µM
TGI (SK-OV-3 ovarian): > 100 µM
TGI (OVCAR-4 ovarian): > 100 µM
TGI (SK-MEL-5 melanoma): > 100 µM
TGI (U251 CNS): > 100 µM
TGI (HL-60(TB) leukemia): > 100 µM
TGI (EKVX NSCLC): > 100 µM
TGI (NCI-H23 lung): > 100 µM
TGI (MALME-3M melanoma): > 100 µM
TGI (SF-295 CNS): > 100 µM

COc1cc([C@H]2CC(=O)C[C@H](c3cc(OC)c(OC)c(OC)c3)C23C(=O)c2ccccc2C3=O)cc(OC)c1OC
TGI (HT29 colon): > 100 µM
TGI (786-0 renal): > 100 µM
TGI (UO-31 renal): > 100 µM
TGI (SK-MEL-2 melanoma): > 100 µM
TGI (A549 NSCLC): > 100 µM
TGI (SK-OV-3 ovarian): > 100 µM
TGI (SK-MEL-5 melanoma): > 100 µM
TGI (U251 CNS): > 100 µM
TGI (EKVX NSCLC): > 100 µM
TGI (NCI-H23 lung): > 100 µM
TGI (MALME-3M melanoma): > 100 µM
TGI (NCI/ADR-RES ovarian): > 100 µM
TGI (SF-295 CNS): > 100 µM

O=c1n(-c2ccccc2)c(=O)n2n1C1Cc3ccccc3C12 (centres undefined)
TGI (HT29 colon): > 100 µM
TGI (786-0 renal): > 100 µM
TGI (UO-31 renal): > 100 µM
TGI (SK-MEL-2 melanoma): > 100 µM
TGI (A549 NSCLC): > 100 µM
TGI (SNB-75 CNS): > 100 µM
TGI (SK-OV-3 ovarian): > 100 µM
TGI (CCRF-CEM leukemia): > 100 µM
TGI (SK-MEL-5 melanoma): > 100 µM
TGI (U251 CNS): > 100 µM
TGI (HL-60(TB) leukemia): > 100 µM
TGI (EKVX NSCLC): > 100 µM
TGI (NCI-H23 lung): > 100 µM
TGI (NCI/ADR-RES ovarian): > 100 µM
TGI (SF-295 CNS): > 100 µM

Cc1ccc(/C=C2\CN(C)CC3C2=NN(c2ccccc2)C3c2ccc(C)cc2)cc1 (centres undefined)
TGI (HT29 colon): > 100 µM
TGI (786-0 renal): > 100 µM
TGI (UO-31 renal): > 100 µM
TGI (SK-MEL-2 melanoma): > 100 µM
TGI (A549 NSCLC): > 100 µM
TGI (SK-OV-3 ovarian): > 100 µM
TGI (OVCAR-4 ovarian): > 100 µM
TGI (CCRF-CEM leukemia): 95.7 µM
TGI (SK-MEL-5 melanoma): > 100 µM
TGI (U251 CNS): > 100 µM
TGI (EKVX NSCLC): > 100 µM
TGI (NCI-H23 lung): > 100 µM
TGI (MALME-3M melanoma): > 100 µM
TGI (NCI/ADR-RES ovarian): > 100 µM
TGI (SF-295 CNS): > 100 µM

C#C[C@]1(O)CC[C@H]2[C@@H]3CCC4=C/C(=N/NC(=O)c5cccc6cc7ccccc7nc56)CC[C@@H]4[C@H]3CC[C@@]21CC
TGI (HT29 colon): > 100 µM
TGI (786-0 renal): > 100 µM
TGI (SK-MEL-2 melanoma): > 100 µM
TGI (A549 NSCLC): > 100 µM
TGI (SNB-75 CNS): > 100 µM
TGI (SK-OV-3 ovarian): > 100 µM
TGI (OVCAR-4 ovarian): > 100 µM
TGI (CCRF-CEM leukemia): > 100 µM
TGI (SK-MEL-5 melanoma): 63.7 µM
TGI (U251 CNS): > 100 µM
TGI (HL-60(TB) leukemia): > 100 µM
TGI (NCI-H23 lung): > 100 µM
TGI (NCI/ADR-RES ovarian): > 100 µM

CC(=O)N1C(NN(C)C)CCN1c1ccccc1 (centres undefined)
TGI (HT29 colon): > 10 µM
TGI (786-0 renal): > 10 µM
TGI (A549 NSCLC): > 10 µM
TGI (SNB-75 CNS): > 10 µM
TGI (SK-OV-3 ovarian): > 10 µM
TGI (OVCAR-4 ovarian): > 10 µM
TGI (CCRF-CEM leukemia): > 10 µM
TGI (SK-MEL-5 melanoma): > 10 µM
TGI (HL-60(TB) leukemia): > 10 µM
TGI (EKVX NSCLC): > 10 µM
TGI (NCI-H23 lung): > 10 µM
TGI (MALME-3M melanoma): > 10 µM
TGI (SF-295 CNS): > 10 µM
